{"source": "patent US20090023184A1", "about": "“Novel Tachykinin Peptides, Precursor Peptides Thereof And Genes Encoding The Same” (SUNTORY LIMITED, priority 1999, published 2009)", "key": {"ileum of the guinea pig": {"tested_on": "ileum of the guinea pig", "test": "Measurement of the ileum constricting activity of the guinea pig (isolated ileum, tension recording)", "type": "cell-based", "conditions": "concentration of 1×10^−8 M in chamber, 37° C. physiological saline; FIGS. 5 and 6", "method": "The ileum constricting activity of the guinea pig was performed in accordance with a method by Champagne et al. (Champagne D. E. et al., Proc. Natl. Acad. Sci. USA., 91, 138-142, 1994).\nThe ileum of the guinea pig was excised, and the both ends thereof were fastened with a cotton thread. Then, one end thereof was fixed to a sample chamber (5 ml capacity) and another end was fixed to a transducer to obtain a specimen for the examination. The inside of the sample chamber was maintained constantly with 37° C. physiological saline. The samples to be measured were dissolved into the physiological saline solution, and added to the sample chamber. The changes of tension of the ileum by constriction were recorded."}, "rectum of the carp": {"tested_on": "rectum of the carp", "test": "Measurement of the rectum constricting activity of the carp (isolated intestine, tension recording)", "type": "cell-based", "conditions": "added to the chamber with the amount corresponding to one head of Octopus vulgaris; FIGS. 3 and 4", "method": "The rectum constricting activity of the carp was performed as follow. That is, the intestine of the carp was excised, and the both ends thereof were fastened with a cotton thread. Then, one end thereof was fixed to a sample chamber (2 ml capacity) and another end was fixed to a transducer to obtain a specimen for the examination. The samples to be measured were dissolved into the physiological saline solution, and added to the sample chamber. The changes of tension of the intestine by constriction were recorded."}}}
{"substance": "H-Lys-Pro-Pro-Ser-Ser-Ser-Glu-Phe-Ile-Gly-Leu-Met-NH2 (H-KPPSSSEFIGLM-NH2) [Compound (2), tachykinin neuropeptide of Octopus vulgaris posterior salivary gland, isolated from Fraction B and also synthesized]", "values": [{"measurement": "constricting activity against the ileum of the guinea pig", "setting": "ileum of the guinea pig", "result": "constricted strongly"}, {"measurement": "constricting activity against the rectum of the carp", "setting": "rectum of the carp", "result": "constricted strongly"}]}
{"substance": "H-Lys-Pro-Pro-Ser-Ser-Ser-Glu-Phe-Val-Gly-Leu-Met-NH2 (H-KPPSSSEFVGLM-NH2) [Compound (1), tachykinin neuropeptide of Octopus vulgaris posterior salivary gland, isolated from Fraction A and also synthesized]", "values": [{"measurement": "constricting activity against the ileum of the guinea pig", "setting": "ileum of the guinea pig", "result": "constricted strongly"}, {"measurement": "constricting activity against the rectum of the carp", "setting": "rectum of the carp", "result": "constricted strongly"}]}
